The text below walks through data of patent publication US20020049223A1, “Quinoline and naphthyridine carboxylic acid antibacterials” (priority 1999, published 2002).

Holding throughout (assay): Assay B: in vitro antibacterial activity, broth microdilution MIC (NCCLS)
What all share (type): cell-based
Background: In broth dilution the organism is exposed to a series of concentrations in liquid medium.

For assay [1], the system named is Enterococcus faecalis PIU 1967. The following applies: Table 2, Assay B, cation-adjusted Mueller Hinton broth, 35° C., 16 to 20 hr; code B = Enterococcus faecalis PIU 1967; unit assumed. The procedure:
(§1) Assay B. Determination of Biological Activity In Vitro Assay of Antibacterial Activity
(§2) Representative compounds of the invention were assayed in vitro for antibacterial activity. The susceptibilities of aerobic, nonfastidious species were determined visually by broth microdilution as described by the National Committee for Clinical Laboratory Standards (NCCLS) (National Committee for Clinical Laboratory Standards. 1997. Methods for dilution antimicrobial susceptibility tests for bacteria that grow aerobically. Approved standard M7-A4. National Committee for Clinical Laboratory Standards. Wayne, Pa.). In brief, serial two-fold dilutions of test compounds were made in cation-adjusted Mueller Hinton broth at two-times the final concentration. Inocula were prepared from overnight cultures of test strains. Tests were inoculated with a suspension of bacteria in Mueller Hinton broth to achieve a final density of approximately 5×10^5 CFU/mL. Tests were incubated at 35° C. in ambient air for 16 to 20 hr. Minimum Inhibitory Concentrations (MICs) were determined as the lowest drug concentration completely inhibiting growth. Ciprofloxacin was included as a control. For testing S. pneumoniae, the cation-adjusted Mueller Hinton broth was supplemented with 3% lysed horse blood and the incubation period was extended to 20 to 24 hr. For testing H. influenzae, the cation-adjusted Mueller Hinton broth was supplemented with 5 g/L yeast extract, […] and 15 mg/L NAD and incubation was extended to 20 to 24 hr..

Assay [2] relates to Escherichia coli JUHL. The following applies: Table 2, Assay B, cation-adjusted Mueller Hinton broth, 35° C., 16 to 20 hr; code D = Escherichia coli JUHL; unit assumed. As for the experimental part: as §1, §2
The test system of assay [3] is Haemophilus influenzae DILL AMP R. Particulars: Table 2, Assay B, Mueller Hinton broth with yeast extract, hematin and NAD, 20 to 24 hr; code E = Haemophilus influenzae DILL AMP R; unit assumed. As for the experimental part:
as §1, §2

Assay [4] concerns Staphylococcus aureus ATCC 6538P. The following applies: Table 2, Assay B, cation-adjusted Mueller Hinton broth, 35° C., 16 to 20 hr; code A = Staphylococcus aureus ATCC 6538P; unit assumed. As for the experimental part:
as §1, §2

Assay [5] deals with Streptococcus pneumoniae ATCC 6303. The following applies: Table 2, Assay B, Mueller Hinton broth with 3% lysed horse blood, 20 to 24 hr; code F = Streptococcus pneumoniae ATCC 6303; unit assumed. As for the experimental part: as §1, §2

SMILES strings stand for the structures. A value given as a limit tells only on which side of the number the result lay.

Turning to `COc1c(-c2cc3c(s2)CCC(=O)C3)ccc2c(=O)c(C(=O)O)cn(C3CC3)c12` [Example 53, 1-cyclopropyl-8-methoxy-4-oxo-7-(5-oxo-4,5,6,7-tetrahydro-1-benzothien-2-yl)-1,4-dihydro-3-quinolinecarboxylic acid], in assay [1], the Antibacterial Activity (MIC's), B was determined as 2 µg/mL. Besides, the Antibacterial Activity (MIC's), D in assay [2] came to 8 µg/mL. Moreover, in assay [3], the Antibacterial Activity (MIC's), E turned out to be 1 µg/mL. For the same compound, the Antibacterial Activity (MIC's), A in assay [4] amounted to 0.06 µg/mL. For the same compound, the Antibacterial Activity (MIC's), F in assay [5] was found to be 0.5 µg/mL.
In assay [1], `COc1c(-c2cc3c(s2)CCC(=NO)C3)ccc2c(=O)c(C(=O)O)cn(C3CC3)c12` [Example 55, 1-cyclopropyl-7-((5E/Z)-5-(hydroxyimino)-4,5,6,7-tetrahydro-1-benzothien-2-yl)-8-methoxy-4-oxo-1,4-dihydro-3-quinolinecarboxylic acid] displayed an Antibacterial Activity (MIC's), B of 0.125 µg/mL. Moreover, the Antibacterial Activity (MIC's), D in assay [2] turned out to be 0.5 µg/mL. This compound also displayed an Antibacterial Activity (MIC's), E in assay [3] of 0.06 µg/mL. The same compound registered an Antibacterial Activity (MIC's), A in assay [4] not above 0.004 µg/mL. In assay [5], this compound came in with an Antibacterial Activity (MIC's), F of 0.125 µg/mL.
Turning to `CON=C1CCc2sc(-c3ccc4c(=O)c(C(=O)O)cn(C5CC5)c4c3OC)cc2C1` [Example 56, 1-cyclopropyl-8-methoxy-7-((5E/Z)-5-(methoxnimino)-4,5,6,7-tetrahydro-1-benzothien-2-yl)-4-oxo-1,4-dihydro-3-quinolinecarboxylic acid], in assay [1], the Antibacterial Activity (MIC's), B is 0.5 µg/mL. The Antibacterial Activity (MIC's), D in assay [2] was found to be 4 µg/mL. This compound registered an Antibacterial Activity (MIC's), E in assay [3] of 0.25 µg/mL. The Antibacterial Activity (MIC's), A in assay [4] turned out to be 0.03 µg/mL. The Antibacterial Activity (MIC's), F in assay [5] was found to be 0.125 µg/mL.
Turning to `COc1c(-c2cc3c(s2)CCC(Br)C3=O)ccc2c(=O)c(C(=O)O)cn(C3CC3)c12` (stereo not shown) [Example 58, 7-(5-bromo-4-oxo-4,5,6,7-tetrahydro-1-benzothien-2-yl)-1-cyclopropyl-8-methoxy-4-oxo-1,4-dihydro-3-quinolinecarboxylic acid], the Antibacterial Activity (MIC's), B in assay [1] turned out to be 0.06 µg/mL. Besides, the Antibacterial Activity (MIC's), D in assay [2] was found to be 0.25 µg/mL. For the same compound, the Antibacterial Activity (MIC's), E in assay [3] worked out at 0.015 µg/mL. In assay [4], this compound returned an Antibacterial Activity (MIC's), A of 0.004 µg/mL. Further, the Antibacterial Activity (MIC's), F in assay [5] is 0.06 µg/mL.
In turn, `COc1c(-c2cc3c(s2)CC(=O)CC3)ccc2c(=O)c(C(=O)O)cn(C3CC3)c12` [Example 59, 1-cyclopropyl-8-methoxy-4-oxo-7-(6-oxo-4,5,6,7-tetrahydro-1-benzothien-2-yl)-1,4-dihydro-3-quinolinecarboxylic acid] gave an Antibacterial Activity (MIC's), B in assay [1] of 1 µg/mL. In assay [2], the Antibacterial Activity (MIC's), D came to 8 µg/mL. The Antibacterial Activity (MIC's), E in assay [3] was found to be 1 µg/mL. For the same compound, in assay [4], the Antibacterial Activity (MIC's), A was 0.03 µg/mL. In assay [5], this compound yielded an Antibacterial Activity (MIC's), F of 0.5 µg/mL.
In assay [1], `COc1c(-c2cc3c(s2)C(=O)CCC3)ccc2c(=O)c(C(=O)O)cn(C3CC3)c12` [Example 61, 1-cyclopropyl-8-methoxy-4-oxo-7-(7-oxo-4,5,6,7-tetrahydro-1-benzothien-2-yl)-1,4-dihydro-3-quinolinecarboxylic acid] had an Antibacterial Activity (MIC's), B of 0.25 µg/mL. Moreover, in assay [2], the Antibacterial Activity (MIC's), D was 2 µg/mL. The Antibacterial Activity (MIC's), E in assay [3] worked out at 0.125 µg/mL. Moreover, the Antibacterial Activity (MIC's), A in assay [4] is 0.03 µg/mL. For the same compound, in assay [5], the Antibacterial Activity (MIC's), F was determined as 0.125 µg/mL.
On to `CON=C1CCCc2cc(-c3ccc4c(=O)c(C(=O)O)cn(C5CC5)c4c3OC)sc21` [Example 63, 1-cyclopropyl-8-methoxy-7-((7E/Z)-7-(methoxyimino)-4,5,6,7-tetrahydro-1-benzothien-2-yl)-4-oxo-1,4-dihydro-3-quinolinecarboxylic acid], for which, in assay [1], the Antibacterial Activity (MIC's), B was 0.125 µg/mL. In assay [2], this compound yielded an Antibacterial Activity (MIC's), D of 0.05 µg/mL. The compound also gave an Antibacterial Activity (MIC's), E in assay [3] of 0.06 µg/mL. In assay [4], the Antibacterial Activity (MIC's), A is 0.015 µg/mL. The same compound showed an Antibacterial Activity (MIC's), F in assay [5] of 0.25 µg/mL.
For the compound `CON=C1CCCc2sc(-c3ccc4c(=O)c(C(=O)O)cn(C5CC5)c4c3OC)cc21` [Example 64, 1-cyclopropyl-8-methoxy-7-((4E/Z)-4-(methoxyimino)-4,5,6,7-tetrahydro-1-benzothien-2-yl)-4-oxo-1,4-dihydro-3-quinolinecarboxylic acid], the Antibacterial Activity (MIC's), B in assay [1] came to 0.25 µg/mL. The Antibacterial Activity (MIC's), D in assay [2] came out at 2 µg/mL. This compound also returned an Antibacterial Activity (MIC's), E in assay [3] of 0.25 µg/mL. This compound also showed an Antibacterial Activity (MIC's), A in assay [4] of 0.03 µg/mL. This compound displayed an Antibacterial Activity (MIC's), F in assay [5] of 0.125 µg/mL.
On to `CON=C1CCc2cc(-c3ccc4c(=O)c(C(=O)O)cn(C5CC5)c4c3OC)sc2C1` [Example 66, 1-cyclopropyl-8-methoxy-7-((6E/Z)-6-(methoxyimino)-4,5,6,7-tetrahydro-1-benzothien-2-yl)-4-oxo-1,4-dihydro-3-quinolinecarboxylic acid], for which the Antibacterial Activity (MIC's), B in assay [1] was determined as 0.5 µg/mL. In assay [2], the Antibacterial Activity (MIC's), D worked out at 2 µg/mL. In assay [3], this compound came in with an Antibacterial Activity (MIC's), E of 0.5 µg/mL. Besides, the Antibacterial Activity (MIC's), A in assay [4] is 0.06 µg/mL. For the same compound, the Antibacterial Activity (MIC's), F in assay [5] was 0.5 µg/mL.
`COc1c(-c2cc3c(s2)CCCC3=NN2CCOCC2)ccc2c(=O)c(C(=O)O)cn(C3CC3)c12` [Example 68, 1-cyclopropyl-8-methoxy-7-((4E/Z)-4-(4-morpholinvlimino)-4,5,6,7-tetrahydro-1-benzothien-2-yl)-4-oxo-1,4-dihydro-3-quinolinecarboxylic acid] gave an Antibacterial Activity (MIC's), B in assay [1] of 0.125 µg/mL. For the same compound, in assay [2], the Antibacterial Activity (MIC's), D was 0.5 µg/mL. In assay [3], this compound showed an Antibacterial Activity (MIC's), E of 0.06 µg/mL. The same compound gave an Antibacterial Activity (MIC's), A in assay [4] of 0.008 µg/mL. This compound also yielded an Antibacterial Activity (MIC's), F in assay [5] of 0.125 µg/mL.
Compound `COc1c(-c2cc3c(s2)CCC(CN)C3)ccc2c(=O)c(C(=O)O)cn(C3CC3)c12.Cl` (stereo not shown) [Example 70, 7-(5-(aminomethyl)-4,5,6,7-tetrahydro-1-benzothien-2-yl)-1-cyclopropyl-8-methoxy-4-oxo-1,4-dihydro-3-quinolinecarboxylic acid hydrochloride] had an Antibacterial Activity (MIC's), B in assay [1] of 0.03 µg/mL. The Antibacterial Activity (MIC's), D in assay [2] was found to be 0.125 µg/mL. Also, the Antibacterial Activity (MIC's), E in assay [3] came out at 0.015 µg/mL. In assay [4], this compound gave an Antibacterial Activity (MIC's), A of 0.03 µg/mL. In assay [5], this compound displayed an Antibacterial Activity (MIC's), F of 0.06 µg/mL.
`COc1c(-c2cc3c(s2)CC(N)CC3)ccc2c(=O)c(C(=O)O)cn(C3CC3)c12.O=C(O)C(F)(F)F` (stereo not shown) [Example 71, 7-(6-amino-4,5,6,7-tetrahydro-1-benzothien-2-yl)-1-cyclopropyl-8-methoxy-4-oxo-1,4-dihydro-3-quinolinecarboxylic acid, trifluoroactic acid salt] gave an Antibacterial Activity (MIC's), B in assay [1] of 0.03 µg/mL. In assay [2], this compound came in with an Antibacterial Activity (MIC's), D of 0.06 µg/mL. The compound also had an Antibacterial Activity (MIC's), E in assay [3] of 0.015 µg/mL. The compound also gave an Antibacterial Activity (MIC's), A in assay [4] of 0.03 µg/mL. For the same compound, in assay [5], the Antibacterial Activity (MIC's), F was 0.015 µg/mL.
The compound `COc1c(-c2cc3c(s2)CCCC3=NOCc2ccccc2)ccc2c(=O)c(C(=O)O)cn(C3CC3)c12` [Example 73] gave an Antibacterial Activity (MIC's), B in assay [1] of 0.06 µg/mL. The Antibacterial Activity (MIC's), D in assay [2] came to 0.5 µg/mL. The compound further had an Antibacterial Activity (MIC's), E in assay [3] of 0.03 µg/mL. Also, the Antibacterial Activity (MIC's), A in assay [4] is 0.015 µg/mL. Also, in assay [5], the Antibacterial Activity (MIC's), F was 0.06 µg/mL.
Turning to `COc1c(-c2cc3c(s2)CCCC3CN)ccc2c(=O)c(C(=O)O)cn(C3CC3)c12` (stereo not shown) [Example 130, 7-(4-(aminomethyl)-4,5,6,7-tetrahydro-1-benzothien-2-yl)-1-cyclopropyl-8-methoxy-4-oxo-1,4-dihydro-3-quinolinecarboxylic acid], in assay [1], the Antibacterial Activity (MIC's), B was found to be 0.125 µg/mL. The Antibacterial Activity (MIC's), D in assay [2] came out at 0.06 µg/mL. The same compound displayed an Antibacterial Activity (MIC's), E in assay [3] of 0.015 µg/mL. In assay [5], this compound displayed an Antibacterial Activity (MIC's), F of 0.125 µg/mL.
`COc1c(-c2cc3c(s2)CCCC3=NOCc2ccncc2)ccc2c(=O)c(C(=O)O)cn(C3CC3)c12` [Example 131, 1-cyclopropyl-8-methoxy-4-oxo-7-((4E/Z)-4-((4-pyridinylmethoxy)imino)-4,5,6,7-tetrahydro-1-benzothien-2-yl)-1,4-dihydro-3-quinolinecarboxylic acid] had an Antibacterial Activity (MIC's), B in assay [1] of 0.5 µg/mL. In assay [2], this compound showed an Antibacterial Activity (MIC's), D of 1 µg/mL. Also, in assay [3], the Antibacterial Activity (MIC's), E was 0.125 µg/mL. The same compound gave an Antibacterial Activity (MIC's), F in assay [5] of 0.5 µg/mL.
